Experiment [1] has as its system R4N/R1N-affinity purified antibodies. The experiment in a line: Synthetic peptide ELISA on maleimide-activated plates with R4N/R1N-affinity purified antibodies. It counts as binding, swine. To be noted: synthetic peptides bound to MBS coated plates. As to the method:
(§1) In FIG. 7, there is shown the reactivity of anti peptides-affinity purified antibodies to synthetic peptides bound to MBS coated ELISA plates. Results are expressed as corrected OD405 (OD tested peptide-OD irrelevant peptide P7, Table 1).
(§2) Several deduced peptides and variations of them were synthesized using solid phase technology and Fmoc standart chemistry. To perform ELISAs with these synthetic peptides, they were diluted in PBS pH 6.8 to a final concentration of 50 μg/ml, and then were used to coat Reacti-Bind Maleimide-Activated Plates (Pierce, Rockford, Ill.) for 5 hours at room temperature. Remaining maleimide groups were blocked by a 1-hour incubation with cysteine-HCl 10 μg/ml diluted in PBS pH 6.8. An extra blocking step was carried out by incubating the plate with PBS containing 10% milk. Sera or affinity-purified antibodies were added in different dilutions and incubated for 1 hour at room temperature.
(§3) Based on the previous results, anti-epitope A and anti-epitope B antibodies were affinity purified from a pool of precipitated antibodies with a SN titer of 1:512 using Keyhole-limpet hemocianine (KLH)-conjugated peptides coupled to CNBr-activated Sepharose as ligand as it is known in the art. R4N/R1N-affinity purified antibodies recognized peptides R4N, peptide R1N and peptide S1. All these peptides contain an (A/V)LVN motif.
Background: An ELISA detects its analyte on a solid surface through an enzyme-linked reagent.

For experiment [2], the system named is anti-peptide S2-affinity purified antibodies. In words: Synthetic peptide ELISA on maleimide-activated plates with anti-peptide S2-affinity purified antibodies. The class given is binding, swine. The settings on record: for recognition by S2 affinity purified antibodies in ELISA: synthetic peptides bound to MBS coated plates; for ELISA signal (OD) with anti-peptide S2 affinity-purified antibodies: synthetic peptide bound to ELISA plate. As to the method: as §1, §2, §3

The next experiment relates to swine neutralizing serum. In words: Synthetic peptide ELISA with swine anti-PRRSV neutralizing serum. It counts as binding. The settings on record: NS from different immunized swine. As to the method:
(§4) In FIG. 6 there is show the reactivity of Monoclonal antibody ISU25-C1 and swine anti-PRRSV hyperimmune sera to synthetic peptides bound to MBS coated ELISA plates. Results are expressed as corrected Optical density (OD) at 405 nm (OD405): (OD tested peptide-OD irrelevant peptide P7, Table 1). SN titer was determined against PRRSV Iowa strain. ELISA s/p ratio was determined as the difference in the optical density (OD) of the test serum between viral and control antigens divided by the difference in the OD of the positive reference between viral and control antigens. Serums 3, 5, 6 y 8 are from PRRSV-hyperimmunized pigs, serum 19 is a negative control, ISU 25-C1 and ISU 19A1 (Yang, L et al, Arch. Virol. 145:1599-1619, 2000) are anti-PRRSV neutralizing and non-neutralizing monoclonal antibodies respectively.
as §2

Experiment [3] relates to anti-peptide S2-affinity purified antibodies. In words: Inhibition by synthetic peptides of binding of anti-peptide S2-affinity purified antibodies to phage clone S2-4. More on the design: species or system swine. To be noted: serial five-fold dilutions of peptide. The protocol: In FIG. 8, there is shown the inhibition by synthetic peptides of the binding of anti-peptide S2-affinity purified antibodies to phage clone S2-4. Serial five-fold dilutions of synthetic peptides S2 (filled squares), S3 (X) or irrelevant peptide P7(filled circle) were used. Results are expressed as the percentage of the signal obtained with anti-peptide S2 affinity purified antibodies in wells to which no peptides were added. Values are the average of four readings.
This stresses the importance of motif SHF in the composition of epitope B. Anti-peptide S2 affinity-purified antibodies, recognized to a similar extent peptides S2 (OD: 0.336) and S6 (OD: 0.369), confirming that residues H^38, Q^40, I^42, Y^43 and N^44 constitute the core of epitope B.

The test system of experiment [4] is Monoclonal antibody ISU25-C1. In words: Synthetic peptide ELISA with monoclonal antibody ISU25-C1. It counts as binding, mouse. As to the method: as §4
Several deduced peptides and variations of them were synthesized using solid phase technology and Fmoc standart chemistry. To perform ELISAs with these synthetic peptides, they were diluted in PBS pH 6.8 to a final concentration of 50 μg/ml, and then were used to coat Reacti-Bind Maleimide-Activated Plates (Pierce, Rockford, Ill.) for 5 hours at room temperature. Remaining maleimide groups were blocked by a 1-hour incubation with cysteine-HCl 10 μg/ml diluted in PBS pH 6.8. An extra blocking step was carried out by incubating the plate with PBS containing 10% milk. […]

In experiment [5] the test system is Monoclonal antibody ISU25-C1. In words: Competition ELISA: inhibition by synthetic peptides of binding of monoclonal antibody ISU25-C1 to PRRSV-coated strips. More on the design: species or system mouse. To be noted: peptide concentration 333 μM. An excerpt:
In FIG. 5 there is shown the inhibition by synthetic peptides of the binding of monoclonal antibody ISU25C1 (solid lines) or monoclonal antibody ISU19-A1 (dofted lines) to PRRSV in ELISA. Serial five-fold dilutions of synthetic peptide S4 were used (filled squares). Unrelated peptide P7 was used with monoclonal antibody ISU25C1 as a negative control (filled circles). Results are expressed as the percentage of the anti PRRSV-specific signal obtained with each monoclonal antibody in wells to which no peptides were added. Values are the average of four readings.
To perform competition assays, several dilutions of peptide S4 and irrelevant peptide […] (shown in Table 1) were incubated with Monoclonal antibody ISU25-C1 for 1.5 hours at room temperature. Then, the antibody-peptide mix was added to PRRSV-coated ELISA strips (IDDEX Lab., Inc; Westbrook, Me.) for 45 minutes.

The subject of experiment [6] is Monoclonal antibody ISU25-C1. In words: Phage-ELISA with monoclonal antibody ISU25-C1. The class given is binding, mouse. The protocol:
(§5) In FIG. 4 there is shown the reactivity of swine sera and monoclonal antibodies to selected cloned phages. Results are expressed as corrected OD405 (OD of selected phage-OD unselected phage library NS: serum from pig #6 with a neutralizing titer >64 and ELISA s/p ratio 1.053 NNS: serum from pig #5 with a neutralizing titer <4 and ELISA s/p ratio 0.652.
(§6) To detect peptides on the coat of phages, individual clones shown in FIG. 3 were propagated for 4.5 hours in E. coli ER2738 and then they were purified by two precipitations with PEG 8000. […] phages were added to each well of a Immulon 2HB (Dynex Technologies Inc, Chantilly, Va.) in sodium bicarbonate 0.1 M pH 8.6, and incubated for 16 hours at room temperature in a humidified chamber. Plates were blocked with PBS containing 10% milk for three hours at room temperature. Swine sera or Monoclonal antibody from the tissue culture supernatant were preadsorbed in PBS containing 10% non-fat milk added with 100 μg/ml of E. coli proteins. In addition, 10^10 pfu/ml of non-selected phages were added to the antibodies to reduce background caused by anti M-13 activity found in animal sera. The plates were washed six times with PBS 0.05% Tween-20 and the peroxidase-conjugated secondary antibody (1:500) was added for 30 minutes at 37 C. […] The results were read in a spectrophotometer at 405 nm.

The next experiment concerns swine anti-PRRSV NS. In words: Phage-ELISA with swine anti-PRRSV neutralizing serum. The class given is binding. As to the method: as §5, §6
The test system of experiment [7] is sera from hyperimmunized pigs. In words: Phage-ELISA with sequential sera from hyperimmunized pigs. It counts as binding, swine. To be noted: early sera (20 days pi), ELISA positive, negative or low SN titer. As to the method:
Epitopes A and B are represented by phage clones 01 and S2-4 (FIG. 1), respectively. ELISA s/p ratio was determined as the difference in the optical density (OD) of the test serum between viral and control antigens divided by the difference in the OD of the positive reference between viral and control antigens.
as §6, with “proteins.” for “proteins. In addition, 10^10 pfu/ml of non-selected phages were added to the antibodies to reduce background caused by anti M-13 activity found in animal sera. The plates were washed six times with PBS 0.05% Tween-20 and the peroxidase-conjugated secondary antibody (1:500) was added for 30 minutes at 37 C.”
Anti-PRRSV neutralizing antibodies appear late after infection and they are mainly directed against GP5. To determine a correlation between time post-infection and epitope recognition, we evaluated sera from several pigs at two different times of the hyperimmunization protocol as shown in FIG. 9.

The subject of another experiment is swine anti-PRRSV NNS. In words: Phage-ELISA with swine anti-PRRSV non-neutralizing serum. It counts as binding. As to the method: as §5, §6

Consider ALVNIPISNNLAC [peptide R4N], for which, in experiment [1], the “recognition by R4N/R1N-affinity purified antibodies in ELISA” value is “recognized”. In addition, the “recognition by S2 affinity purified antibodies in ELISA” value in [2] is on record as “did not recognize”. Also, in the experiment on swine neutralizing serum, the “recognition by swine neutralizing serum in peptide ELISA” value (“recognition by swine neutralizing serum” for short) is “recognized”.

Regarding “SGSGANNSSSSGSGSIYNC [peptide S3, peptide S2 with motif SHF replaced by GSG]”, the “recognition by S2 affinity purified antibodies in ELISA” value in experiment [2] is recorded as “did not recognize”. The “recognition by swine neutralizing serum” value in the experiment with swine neutralizing serum was “completely abrogated”. Besides, the “inhibition of the binding of anti-peptide S2-affinity purified antibodies to clone S2-4” value in experiment [3] was “inhibited the binding”.

Consider “SGSGANNSSSSHFQSIYNC [peptide S2, GP5 residues 27-44 with residues 27-30 changed to SGSG]”, for which, in [1], the “recognition by R4N/R1N-affinity purified antibodies in ELISA” value is “did not recognize”. Also, in [2], the “ELISA signal (OD) with anti-peptide S2 affinity-purified antibodies” value stood at 0.336 OD and the “recognition by S2 affinity purified antibodies in ELISA” value is “recognized”. The “recognition by swine neutralizing serum” value with swine neutralizing serum is “still recognized”. In experiment [4], the “recognition by Monoclonal antibody ISU25-C1 in peptide ELISA” value is given as “does not recognize”. The “inhibition of the binding of anti-peptide S2-affinity purified antibodies to clone S2-4” value in experiment [3] is “inhibited to a greater extent than peptide S3”.

Consider SGSGANSNSSSHLQLIYNLTLCELC [S6], for which the “ELISA signal (OD) with anti-peptide S2 affinity-purified antibodies” value in experiment [2] is on record as 0.369 OD.

In the case of “SGSGSNNSSSSAC [peptide ΔR1N, R1N with residues 27-30 VLVN changed to irrelevant motif SGSG]”, the “recognition by R4N/R1N-affinity purified antibodies in ELISA” value in experiment [1] is “did not recognize”. The “recognition by swine neutralizing serum” value in the experiment with swine neutralizing serum is “abrogated”.

As for “SHITSYPAYFWC [peptide S4, mimotope for ISU25-C1]”, in [5], the “inhibition of the binding of Monoclonal antibody ISU25-C1 to PRRSV” value is 60%. For the same sequence, the “recognition by swine neutralizing serum” value in the experiment with swine neutralizing serum was “do not recognize”. The “recognition by Monoclonal antibody ISU25-C1 in peptide ELISA” value in experiment [4] is on record as “recognized”.

For the sequence “VLVNANNSSSSHFQSIYNC [peptide S1, residues 27 to 43 of GP5 of IA 97-7895, contains motifs VLVN and HXXXIYN]”, the “recognition by R4N/R1N-affinity purified antibodies in ELISA” value in experiment [1] is “recognized”. Moreover, the “recognition by S2 affinity purified antibodies in ELISA” value in experiment [2] is listed as “recognized”. Besides, the “recognition by swine neutralizing serum” value with swine neutralizing serum was “strongly recognized”.

Take “VLVNSNNSSSSAC [peptide R1N, aminoacids 27-38 of the GP5 of PRRSV IA 97-7895 isolate]”: the “recognition by R4N/R1N-affinity purified antibodies in ELISA” value in experiment [1] is given as “recognized”. Besides, in [2], the “recognition by S2 affinity purified antibodies in ELISA” value is recorded as “did not recognize”. Besides, the “recognition by swine neutralizing serum” value in the experiment on swine neutralizing serum is listed as “recognized”.

Consider YKNTHLDLIYNA [phage clone S2-4], for which the “recognition of phage-displayed peptide by Monoclonal antibody ISU25-C1” value in [6] is recorded as “not by swine non-neutralizing serum or by monoclonal antibody ISU25-C1”. In the experiment with swine anti-PRRSV NS, the “recognition of phage-displayed peptide by swine anti-PRRSV neutralizing serum (NS)” value is given as “strongly recognized”. In experiment [7], the “reactivity of sera obtained shortly after the beginning of the immunization” value was “very weakly”. The “recognition of phage-displayed peptide by swine anti-PRRSV non-neutralizing serum (NNS)” value in the experiment with swine anti-PRRSV NNS is “not by swine non-neutralizing serum”.

The record behind these values is patent US20040014028A1, “Method for determination of protective epitopes for vaccination, diagnosis and vaccine quality control” (Wolf Biotech, priority 2002, published 2004).
